The source of these data is patent US12679860B2, “C-terminal HSP90 inhibitors” (UNIVERSITY OF KANSAS, priority 2012, dated 2026).

SMILES strings stand for the structures.

Broadly, the viability is a read-out of living cells in per cent, often relative to untreated cells. In general, EC50 refers to the concentration giving half of the maximal effect.

The assay concerns embryonic dorsal root ganglion (DRG) sensory neuron cultures. The assay is described as follows: Glucotoxicity assay: cell viability (calcein AM) of DRG sensory neurons under glucose-induced toxicity. It counts as cell-based, Sprague Dawley rat. Conditions: for viability at 1 µM / EC50: Rattus norvegicus, Neuron; for viability at 1 µM: glucose + DMSO was 54% ± 2; for EC50: 0.1-1000 nM novologue overnight, then 4 hrs of hyperglycemia, mean±SEM (n=3-8), read-out: EC50 for protection against glucose-induced toxicity. As to the method:
DRG sensory neurons were incubated in the absence or presence of 0.1-1000 nM of the indicated novologue overnight and then subjected to 4 hrs of hyperglycemia.
The ganglia were sedimented at 1,000×g for 5 min, resuspended in growth media [phenol red free Neurobasal medium (Gibco, Grand Island, NY) containing 25 mM glucose, 1X B-27 additive, 50 ng/ml NGF (Harlan Bioscience, Indianapolis, IN), 4 mM glutamine, 100 U/mL penicillin and 100 μg/mL streptomycin] and triturated with a fire-polished glass pipette. The cells were cultured on collagen-coated (0.1 mg/mL collagen followed by overnight air drying in a laminar flow hood) black-walled 96-well plates (Corning Incorporated Corning, NY) at a seeding density of 2-3×10^4 cells per well. DRG neurons were re-fed the next day with fresh growth media containing 40 μM fluorodeoxyuridine and 10 μM cytosine β-D-arabinoside (both from Sigma Aldrich, St. Louis, MO) for 2 days to remove proliferating cells. Experiments were performed on DRG neurons on the third day in culture after placing the cells in fresh growth medium. […]
DRG neurons were incubated overnight with the test compounds in the presence of Neurobasal medium, 50 ng/ml NGF and antibiotics only. In order to monitor the efficiency of the compounds in protecting DRG neurons against glucotoxicity, Calcein AM (Invitrogen, Carlsbad, CA) was utilized to measure cell viability. Hydrolysis of calcein AM to a fluorescent product can only occur in live cells. Excess glucose was added to the cultures for 4 hrs and cell viability was measured by incubating the cells with 2 μM calcein AM for 30 min in the dark at 37° C. Fluorescence was then measured using a plate reader with excitation and emission wavelengths set to 485 nm and 520 nm, respectively. The arbitrary fluorescence readings were normalized to the total amount of protein from each respective well of the neuronal cultures. The protein concentrations in each well were determined using the DC protein assay (Bio-Rad). Significant differences in the efficacy of the novologues for increasing cell viability were determined using a Kruskal-Wallis non-parametric ANOVA and Dunn's post-test.

Setting [1] is: Table 2 cyclohexene analogues, 1 μM novologue + 20 mM excess glucose.
[2] abbreviates: Table 1, 1 μM of each novologue + 20 mM excess glucose.
The mark [3] stands for this setting: 1 μM novologue + 20 mM excess glucose.

With `CO[C@@H]1[C@@H](O)[C@@H](O)[C@H](Oc2ccc(C3CC=CCC3NC(C)=O)c(-c3cccc(F)c3)c2)OC1(C)C` (mixture of isomers) [20a, N-(4′-(((3R,4S,5R)-3,4-dihydroxy-5-methoxy-6,6-dimethyltetrahydro-2H-pyran-2-yl)oxy)-3″-fluoro-1,2,3,6-tetrahydro-[1,1′: 2′,1″-terphenyl]-2-yl)acetamide], under setting [1], the viability at 1 µM was 78%.

Turning to `CO[C@@H]1[C@@H](O)[C@@H](O)[C@H](Oc2ccc(C3CC=CCC3NC(C)=O)c(-c3cccc(C(F)(F)F)c3)c2)OC1(C)C` (mixture of isomers) [20b, N-(4′-(((3R,4S,5R)-3,4-dihydroxy-5-methoxy-6,6-dimethyltetrahydro-2H-pyran-2-yl)oxy)-3″-(trifluoromethyl)-1,2,3,6-tetrahydro-[1,1′: 2′,1″-terphenyl]-2-yl) acetamide], the viability at 1 µM under setting [1] was 69%.

Turning to `CO[C@@H]1[C@@H](O)[C@@H](O)C(Oc2ccc(CCNC(C)=O)c(-c3ccccc3)c2)OC1(C)C` (stereo partly drawn) [11a, N-(2-(5-(((3R,4S,5R)-3,4-dihydroxy-5-methoxy-6,6-dimethyltetrahydro-2H-pyran-2-yl)oxy)-[1,1′-biphenyl]-2-yl)ethyl)acetamide], under setting [2], the viability at 1 µM was 76%.

Take `CO[C@@H]1[C@@H](O)[C@@H](O)C(Oc2ccc(CCNC(C)=O)c(-c3ccc(F)cc3)c2)OC1(C)C` (stereo partly drawn) [11c, N-(2-(5-(((3R,4S,5R)-3,4-dihydroxy-5-methoxy-6,6-dimethyltetrahydro-2H-pyran-2-yl)oxy)-4′-fluoro-[1,1′-biphenyl]-2-yl)ethyl)acetamide]: the “protection against glucose-induced toxicity (in words)” value (shortened to “protection”) under setting [3] is “showed significant protection against glucose-induced cell death”. In addition, under setting [2], the viability at 1 µM was 75%.

Take `CO[C@@H]1[C@@H](O)[C@@H](O)C(Oc2ccc(CCNC(C)=O)c(-c3ccccc3Cl)c2)OC1(C)C` (stereo partly drawn) [11d, N-(2-(2′-chloro-5-(((3R,4S,5R)-3,4-dihydroxy-5-methoxy-6,6-dimethyltetrahydro-2H-pyran-2-yl)oxy)-[1,1′-biphenyl]-2-yl)ethyl)acetamide]: the “protection” value under setting [3] is “showed significant protection against glucose-induced cell death”. Under setting [2], the viability at 1 µM is 71%.

With `CO[C@@H]1[C@@H](O)[C@@H](O)C(Oc2ccc(CCNC(C)=O)c(-c3cccc(Cl)c3)c2)OC1(C)C` (stereo partly drawn) [11e, N-(2-(3′-chloro-5-(((3R,4S,5R)-3,4-dihydroxy-5-methoxy-6,6-dimethyltetrahydro-2H-pyran-2-yl)oxy)-[1,1′-biphenyl]-2-yl)ethyl)acetamide], the “protection” value under setting [3] was “showed significant protection against glucotoxicity”. Besides, the viability at 1 µM under setting [2] is 90%.

Consider `CO[C@@H]1[C@@H](O)[C@@H](O)C(Oc2ccc(CCNC(C)=O)c(-c3cccc(C(F)(F)F)c3)c2)OC1(C)C` (stereo partly drawn) [11f, N-(2-(5-(((3R,4S,5R)-3,4-dihydroxy-5-methoxy-6,6-dimethyltetrahydro-2H-pyran-2-yl)oxy)-3′-(trifluoromethyl)-[1,1′-biphenyl]-2-yl)ethyl)acetamide], for which the EC50 was 188 ± 43.5 nM. Under setting [3], the “protection” value is reported as “showed significant protection against glucotoxicity”. For the same compound, the viability at 1 µM under setting [2] was 83%.

Consider `CO[C@@H]1[C@@H](O)[C@@H](O)C(Oc2ccc(CCNC(C)=O)c(-c3ccc(C(F)(F)F)cc3)c2)OC1(C)C` (stereo partly drawn) [11g, N-(2-(5-(((3R,4S,5R)-3,4-dihydroxy-5-methoxy-6,6-dimethyltetrahydro-2H-pyran-2-yl)oxy)-4′-(trifluoromethyl)-[1,1′-biphenyl]-2-yl)ethyl)acetamide], for which the “protection” value under setting [3] is on record as “showed significant protection against glucose-induced cell death”. Further, the viability at 1 µM under setting [2] is 74%.

With `CO[C@@H]1[C@@H](O)[C@@H](O)C(Oc2ccc(CCNC(C)=O)c(-c3ccccc3SC)c2)OC1(C)C` (stereo partly drawn) [11h, N-(2-(5-(((3R,4S,5R)-3,4-dihydroxy-5-methoxy-6,6-dimethyltetrahydro-2H-pyran-2-yl)oxy)-2′-(methylthio)-[1,1′-biphenyl]-2-yl)ethyl)acetamide], the EC50 was 384 ± 108 nM. For the same compound, the viability at 1 µM under setting [2] is 83%. In addition, the “EC50 fold greater than KU-32” value (protection against glucose-induced toxicity) is “approximately 1.6 fold”.

For the compound `COc1ccccc1-c1cc(OC2OC(C)(C)[C@H](OC)[C@@H](O)[C@H]2O)ccc1CCNC(C)=O` (stereo partly drawn) [11i, N-(2-(5-(((3R,4S,5R)-3,4-dihydroxy-5-methoxy-6,6-dimethyltetrahydro-2H-pyran-2-yl)oxy)-2′-methoxy-[1,1′-biphenyl]-2-yl)ethyl)acetamide], the viability at 1 µM under setting [2] was 92%.

Turning to `COc1cccc(-c2cc(OC3OC(C)(C)[C@H](OC)[C@@H](O)[C@H]3O)ccc2CCNC(C)=O)c1` (stereo partly drawn) [11j, N-(2-(5-(((3R,4S,5R)-3,4-dihydroxy-5-methoxy-6,6-dimethyltetrahydro-2H-pyran-2-yl)oxy)-3′-methoxy-[1,1′-biphenyl]-2-yl)ethyl)acetamide], the viability at 1 µM under setting [2] is 78%.

Take `CO[C@@H]1[C@@H](O)[C@@H](O)C(Oc2ccc(CCNC(C)=O)c(-c3cccc(C)c3)c2)OC1(C)C` (stereo partly drawn) [11k, N-(2-(5-(((3R,4S,5R)-3,4-dihydroxy-5-methoxy-6,6-dimethyltetrahydro-2H-pyran-2-yl)oxy)-3′-methyl-[1,1′-biphenyl]-2-yl)ethyl)acetamide]: the viability at 1 µM under setting [2] was 82%.

For `CO[C@@H]1[C@@H](O)[C@@H](O)C(Oc2ccc(CCNC(C)=O)c(-c3cccc(CN4CCOCC4)c3)c2)OC1(C)C` (stereo partly drawn) [11l, N-(2-(5-(((3R,4S,5R)-3,4-dihydroxy-5-methoxy-6,6-dimethyltetrahydro-2H-pyran-2-yl)oxy)-3′-(morpholinomethyl)-[1,1′-biphenyl]-2-yl)ethyl)acetamide], under setting [2], the viability at 1 µM was 83%.

Regarding `CO[C@@H]1[C@@H](O)[C@@H](O)C(Oc2ccc(CCNC(C)=O)c(-c3ccc(O)cc3)c2)OC1(C)C` (stereo partly drawn) [11m, N-(2-(5-(((3R,4S,5R)-3,4-dihydroxy-5-methoxy-6,6-dimethyltetrahydro-2H-pyran-2-yl)oxy)-4′-hydroxy-[1,1′-biphenyl]-2-yl)ethyl)acetamide], the viability at 1 µM under setting [2] was 67%.

For `CO[C@@H]1[C@@H](O)[C@@H](O)C(Oc2ccc(CCNC(C)=O)c(-c3cccnc3)c2)OC1(C)C` (stereo partly drawn) [11o, N-(4-(((3R,4S,5R)-3,4-dihydroxy-5-methoxy-6,6-dimethyltetrahydro-2H-pyran-2-yl)oxy)-2-(pyridin-3-yl)phenethyl)acetamide], the “protection” value under setting [3] is recorded as “unable to protect against glucose-induce toxicity”. For the same compound, under setting [2], the viability at 1 µM was 61%.

As for `CO[C@@H]1[C@@H](O)[C@@H](O)C(Oc2ccc(CCNC(C)=O)c(-c3ccncc3)c2)OC1(C)C` (stereo partly drawn) [11p, N-(4-(((3R,4S,5R)-3,4-dihydroxy-5-methoxy-6,6-dimethyltetrahydro-2H-pyran-2-yl)oxy)-2-(pyridin-4-yl)phenethyl)acetamide], the viability at 1 µM under setting [2] was 81%.
